Among the data in US20150315130A1, “New positive allosteric modulators of nicotinic acetylcholine receptor” (H. LUNDBECK A/S, priority 2012, published 2015) are EC50 values, retold here.

The target of this test is T1, human α7 receptor (Homo sapiens, UniProt P36544).
T1 construct: host or cells: rat GH4C1 cell line
T1 sequence (P36544 23-502): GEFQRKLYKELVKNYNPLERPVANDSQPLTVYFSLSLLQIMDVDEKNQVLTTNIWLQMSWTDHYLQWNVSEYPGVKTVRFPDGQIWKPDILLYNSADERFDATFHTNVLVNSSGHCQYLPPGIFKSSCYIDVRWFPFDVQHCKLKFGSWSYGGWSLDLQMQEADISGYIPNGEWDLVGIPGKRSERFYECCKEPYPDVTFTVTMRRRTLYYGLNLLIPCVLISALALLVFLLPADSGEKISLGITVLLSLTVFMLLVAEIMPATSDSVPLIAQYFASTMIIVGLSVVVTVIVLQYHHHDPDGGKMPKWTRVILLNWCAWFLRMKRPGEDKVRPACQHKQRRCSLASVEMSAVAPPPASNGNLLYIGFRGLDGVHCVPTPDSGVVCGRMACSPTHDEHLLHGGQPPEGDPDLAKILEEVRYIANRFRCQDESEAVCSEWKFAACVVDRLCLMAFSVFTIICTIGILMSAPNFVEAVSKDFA
Put plainly: α7 NNR flux assay (FDSS calcium flux, Calcium-4 dye, PAM mode with acetylcholine). Type of test: cell-based. The settings on record: human α7 receptor stably expressed in rat GH4C1 cells; enhancement of response to 20 μM acetylcholine; % modulation relative to PNU-120596 set to 100%. The procedure: The nicotinic acetylcholine receptor α7 is a calcium-permeable ion channel, whose activity can be measured by over expression in mammalian cells or oocytes. These two individual assays are described in Example 2 and 3, respectively.
In this version of the assay, the human α7 receptor is stably expressed in the rat GH4C1 cell line. The assay was used to identify positive allosteric modulators (PAMs) of the α7 receptor. Activation of the channel was measured by loading cells with the calcium-sensitive fluorescent dye Calcium-4 (Assay kit from Molecular Devices), and then measuring real-time changes in fluorescence upon treatment with test compounds.
The cell line ChanClone GH4C1-nAChRalphα7 from Genionics was seeded from frozen stock in 384-well plates in culture media 2-3 days before experiment to form an approximately 80% confluent layer on the day of experiment.
The cell culture was split into “22.5 cm×22.5 cm”-plates with approximately 100×10^3 cells/cm^2. After four days incubation in a humidified incubator at 37° C. and 5% CO2, it had grown to an 80-90% confluent layer, and the cells were harvested.
Two or three days before the experiment the cells were seeded in 384 well plates from Greiner bio-one (781946, CELLCOAT, Poly-D-Lysine, black, μClear).
The media was poured off and the plate washed with PBS and left to drain. 5 mL Trypsin was added, cells were washed and incubated (at room temperature) for about 10 seconds. Trypsin was poured of quickly and the cells were incubated for 2 minutes at 37° C. (if the cells were not already detached). Cells were resuspended in 10 mL culture media and transferred to 50 mL tubes.
The cell suspension was counted (NucleoCounter, total cell count) from the first plates to estimate the total cell number of the whole batch.
The cells were seeded in 384 well plates with 30 μL/well (30000 cells/well) while stirring the cell suspension or otherwise preventing the cells from precipitating.
The plates were incubated at room temperature for 30-45 minutes.
The plates were placed in incubator for two days (37° C. and 5% CO2).
The loading buffer was 5% v/v Calcium-4 Kit and 2.5 mM Probenecid in assay buffer.
Culture media were removed from the cell plates and 20 μL loading buffer was added in each well. The cell plates were placed in trays and incubated 90 minutes in the incubator (37° C.). Thereafter the plates were incubated 30 minutes at room temperature, still protected from light.
Now the cell plates were ready to run in the Functional Drug Screening System (FDSS).
The assay buffer was HBSS with 20 mM HEPES, pH 7.4 and 3 mM CaCl2.
200 nL 10 mM compound solution in DMSO was diluted in 50 μL assay buffer. The final test concentrations in the cell plates were 20-10-5-2.5-1.25-0.625-0.312-0.156-0.078-0.039 μM. Assay buffer and 3 μM PNU-120596 were used for control.
The agonist acetylcholine was added to a final concentration of 20 μM (˜E0100). In the FDSS7000 the Ex480-Em540 was measured with 1 second intervals. The baseline was made of 5 frames before addition of test compounds, and 95 frames more were made before addition of acetylcholine. The measurement stopped 30 frames after the 2nd addition. Raw data for each well were collected as “the maximum fluorescence count” in the interval 100-131 seconds and as “the average fluorescence count” in the interval 96-100 seconds. The positive allosteric modulation in the 2nd addition was the enhancement of agonist response with test compound compared to agonist alone.
Results were calculated as % modulation of test compound compared to the reference PNU-120596 set to 100%.
For `COc1ccc([C@H](C)NC(=O)[C@H]2C[C@@H]2c2ccccc2)cc1` [Compound 1, (1S,2S)-2-Phenyl-cyclopropanecarboxylic acid [(S)-1-(4-methoxy-phenyl)ethyl]-amide], the EC50 came to 1500 nM.

As for `O=C(N[C@@H](CCO)c1ccccc1)[C@H]1C[C@@H]1c1ccccc1` [Compound 2, (1S,2S)-2-Phenyl-cyclopropanecarboxylic acid ((S)-3-hydroxy-1-phenyl-propyl)-amide], the EC50 came out at 4900 nM.

On to `C[C@H](NC(=O)[C@H]1C[C@@H]1c1ccccc1)c1ccc(F)cc1` [Compound 3, (1S,2S)-2-Phenyl-cyclopropanecarboxylic acid [(S)-1-(4-fluoro-phenyl)-ethyl]-amide], for which the EC50 was found to be 2400 nM.

In the case of `COc1ccc([C@H](CO)NC(=O)[C@H]2C[C@@H]2c2cccc(F)c2)cc1` [Compound 4, (1S,2S)-2-(3-Fluoro-phenyl)-cyclopropanecarboxylic acid [(R)-2-hydroxy-1-(4-methoxy-phenyl)-ethyl]-amide], the EC50 stood at 1200 nM.

Take `Cc1ccc([C@H](C)NC(=O)[C@H]2C[C@@H]2c2ccccc2)cc1` [Compound 5, (1S,2S)-2-Phenyl-cyclopropanecarboxylic acid ((S)-1-p-tolyl-ethyl)-amide]: the concentration for a half-maximal effect (EC50) was 3800 nM.

Take `C[C@H](NC(=O)[C@H]1C[C@@H]1c1ccccc1)c1cccc(F)c1` [Compound 6, (1S,2S)-2-Phenyl-cyclopropanecarboxylic acid [(S)-1-(3-fluoro-phenyl)-ethyl]-amide]: the EC50 came to 3100 nM.

Turning to `O=C(N[C@@H](CO)c1ccc(OC(F)(F)F)cc1)[C@H]1C[C@@H]1c1ccccc1` [Compound 7, (1S,2S)-2-Phenyl-cyclopropanecarboxylic acid [(R)-2-hydroxy-1-(4-trifluoromethoxy-phenyl)-ethyl]-amide], the EC50 was determined as 3600 nM.

With `CCOc1ccc([C@H](CO)NC(=O)[C@H]2C[C@@H]2c2ccccc2)cc1` [Compound 8, (1S,2S)-2-Phenyl-cyclopropanecarboxylic acid [(R)-1-(4-ethoxy-phenyl)-2-hydroxy-ethyl]-amide], the concentration giving a half-maximal response (EC50) stood at 270 nM.

`COc1ccc([C@H](CO)NC(=O)[C@H]2C[C@@H]2c2ccccc2)c(F)c1` [Compound 9, (1S,2S)-2-Phenyl-cyclopropanecarboxylic acid [(R)-1-(2-fluoro-4-methoxy-phenyl)-2-hydroxy-ethyl]-amide]: the concentration for a half-maximal effect (EC50) came to 610 nM.

Turning to `COc1ccc([C@H](CO)NC(=O)[C@H]2C[C@@H]2c2ccccc2)cc1` [Compound 10, (1S,2S)-2-Phenyl-cyclopropanecarboxylic acid [(R)-2-hydroxy-1-(4-methoxy-phenyl)-ethyl]-amide], the concentration giving a half-maximal response (EC50) turned out to be 645 nM.

Regarding `COc1cccc([C@H](C)NC(=O)[C@H]2C[C@@H]2c2ccccc2)c1` [Compound 11, (1S,2S)-2-Phenyl-cyclopropanecarboxylic acid [(S)-1-(3-methoxy-phenyl)ethyl]-amide], the EC50 turned out to be 3000 nM.

As to `C[C@H](NC(=O)[C@H]1C[C@@H]1c1ccccc1)c1ccccc1F` [Compound 12, (1S,2S)-2-Phenyl-cyclopropanecarboxylic acid [(S)-1-(2-fluoro-phenyl)-ethyl]-amide], the concentration for a half-maximal effect (EC50) stood at 1900 nM.

Turning to `COc1ccc([C@H](CO)NC(=O)[C@H]2C[C@@H]2c2ccc(F)cc2)cc1` [Compound 13, (1S,2S)-2-(4-Fluoro-phenyl)-cyclopropanecarboxylic acid [(R)-2-hydroxy-1-(4-methoxy-phenyl)-ethyl]-amide], the concentration giving a half-maximal response (EC50) turned out to be 510 nM.

Turning to `COc1ccc([C@H](CO)NC(=O)[C@H]2C[C@@H]2c2cccc(F)c2)cc1` [Compound 14, (1S,2S)-2-(3-Fluoro-phenyl)-cyclopropanecarboxylic acid [(R)-2-hydroxy-1-(4-methoxy-phenyl)-ethyl]-amide], the concentration for a half-maximal effect (EC50) turned out to be 400 nM.

On to `COc1ccc([C@H](CO)NC(=O)[C@H]2C[C@@H]2c2ccccc2F)cc1` [Compound 15, (1S,2S)-2-(2-Fluoro-phenyl)-cyclopropanecarboxylic acid [(R)-2-hydroxy-1-(4-methoxy-phenyl)-ethyl]-amide], for which the concentration for a half-maximal effect (EC50) came to 1200 nM.

Take `COC[C@H](NC(=O)[C@H]1C[C@@H]1c1ccccc1)c1ccc(OC)cc1` [Compound 16, (1S,2S)-2-Phenyl-cyclopropanecarboxylic acid [(R)-2-methoxy-1-(4-methoxy-phenyl)-ethyl]-amide]: the concentration for a half-maximal effect (EC50) was determined as 160 nM.

Take `CCOc1ccc([C@H](COC)NC(=O)[C@H]2C[C@@H]2c2ccccc2)cc1` [Compound 17, (1S,2S)-2-Phenyl-cyclopropanecarboxylic acid [(R)-1-(4-ethoxy-phenyl)-2-methoxy-ethyl]-amide]: the EC50 was 33 nM.

For the compound `O=C(N[C@@H](CO)c1ccc(O)cc1)[C@H]1C[C@@H]1c1ccccc1` [Compound 18, (1S,2S)-2-Phenyl-cyclopropanecarboxylic acid [(R)-2-hydroxy-1-(4-hydroxy-phenyl)-ethyl]-amide], the EC50 was found to be 3900 nM.

Turning to `COC[C@H](NC(=O)[C@H]1C[C@@H]1c1ccccc1)c1ccc(O)cc1` [Compound 19, (1S,2S)-2-Phenyl-cyclopropanecarboxylic acid [(R)-1-(4-hydroxy-phenyl)-2-methoxy-ethyl]-amide], the EC50 was determined as 3600 nM.

With `COC[C@H](NC(=O)[C@H]1C[C@@H]1c1ccc(F)cc1)c1ccc(OC)cc1` [Compound 20, (1S,2S)-2-(4-Fluoro-phenyl)-cyclopropanecarboxylic acid [(R)-2-methoxy-1-(4-methoxy-phenyl)-ethyl]-amide], the EC50 was found to be 84 nM.

With `COC[C@H](NC(=O)[C@H]1C[C@@H]1c1cccc(F)c1)c1ccc(OC)cc1` [Compound 21, (1S,2S)-2-(3-Fluoro-phenyl)-cyclopropanecarboxylic acid [(R)-2-methoxy-1-(4-methoxy-phenyl)-ethyl]-amide], the EC50 was 1100 nM.

As for `O=C(N[C@@H](CO)c1ccc(O)cc1)[C@H]1C[C@@H]1c1ccc(F)cc1` [Compound 22, (1S,2S)-2-(4-Fluoro-phenyl)-cyclopropanecarboxylic acid [(R)-2-hydroxy-1-(4-hydroxy-phenyl)-ethyl]-amide], the EC50 stood at 3200 nM.

`O=C(N[C@@H](CO)c1ccc(O)cc1)[C@H]1C[C@@H]1c1cccc(F)c1` [Compound 23, (1S,2S)-2-(3-Fluoro-phenyl)-cyclopropanecarboxylic acid [(R)-2-hydroxy-1-(4-hydroxy-phenyl)-ethyl]-amide]: the EC50 came to 3800 nM.

Turning to `O=C(N[C@@H](CO)c1ccc(OCCF)cc1)[C@H]1C[C@@H]1c1ccccc1` [Compound 24, (1S,2S)-2-Phenyl-cyclopropanecarboxylic acid {(R)-1-[4-(2-fluoro-ethoxy)phenyl]-2-hydroxy-ethyl}-amide], the EC50 turned out to be 1500 nM.

With `O=C(N[C@@H](CO)c1ccc(OCCF)cc1)[C@H]1C[C@@H]1c1ccc(F)cc1` [Compound 25, (1S,2S)-2-(4-Fluoro-phenyl)-cyclopropanecarboxylic acid {(R)-1-[4-(2-fluoro-ethoxy)-phenyl]-2-hydroxy-ethyl}-amide], the concentration for a half-maximal effect (EC50) stood at 140 nM.

Broadly, the EC50 is the concentration giving half of the maximal effect.
